In US8106039B2, “Metal complex phosphatidyl-inositol-3-kinase inhibitors” (The Trustees Of The University Of Pennsylvania, priority 2008, dated 2012):

Experiments:
[1] = biological target: T1, human PI3Kγ catalytic domain (Homo sapiens, UniProt P48736); assay: PI3K Kinase-Glo assay; type: biochemical; conditions: for IC50: 1.4 pmoles PI3K, FIG. 3A, read-out: IC50 PI3Kγ inhibition
T1 construct: made in house; host or cells: baculovirus expression (virus obtained from the MRC, United Kingdom)
Method: PI3K Kinase-Glo Assay. Recombinantly expressed human PI3Kγ catalytic domain was preincubated with various concentration of inhibitors with a final DMSO concentration of 2% in reaction buffer (20 mM Tris pH 7.5, 100 mM NaCl, 10 mM MgCl2) for 1 hour at room temperature before this mixture was added to a solution of 0.1 mg/mL D-myo-Phosphatidylinositol 4,5-biphosphate (PtdIns (4,5)P2, Echelon Biosciences) and 10 μM ATP. 14 pmoles PI3K was used in compounds DW12, DW12Me, EAd125 comparison and 1.4 pmoles PI3K was used for compounds E5, E5E2, E5E1 measurements. The kinase reaction was carried out in a 50 μL final volume in a 96-well microtiter plate at 37° C. for 3 hours before 50 μL Kinase-Glo® (Promega) developing solution was added into the mixture to generate a luminescence signal. The signal was recorded using the PerkinElmer Wallac 1420 luminometer using a luminescence filter. Data were processed and IC50 values were derived from using 2% DMSO and with no kinase as controls and a sigmoidal dose response curve fitting by GraphPad Prism.

BRAF^V600E = BRAF^V600E (Homo sapiens, UniProt P15056, V600E); assay: BRAF kinase assay (V600E); type: biochemical; conditions: inhibitor concentration of 4 μM; FIG. 3B
Method: (§1) BRAF kinase assay—Recombinantly expressed GST-MEK diluted in TTBS buffer (20 mM Tris pH 7.5, 150 mM NaCl, 0.05% TWEEN-20) to 50 μg/mL in a volume of 100 μL was bound to the wells of a 96-well glutathione coated plate (Pierce Biotechnology). 1 μL of compound with 2× serial dilutions in a 100% DMSO stock solution were added to a mixture of 50 μL of a buffer containing 50 mM HEPES pH 7.0 with 0.7 pmoles of BRAF kinase. This mixture was incubated at room temperature for 1 hour before it was added into the GST-MEK bound wells of the 96-well plate. An additional 50 μL of phosphorylation buffer (50 mM HEPES pH 7.0, 200 mM NaCl, 10 mM MgCl2, 200 μM ATP) was added into the well mixture to start the kinase reaction at 37° C. for 30 min with intermittent shaking. The kinase reaction was stopped by extensive washing with TTBS buffer and a 1:5000 dilution of Anti-phospho-MEK1 (Ser218/222)/MEK2 (Ser222/226) monoclonal antibody (Millipore) in TTBS was subsequently added into the wells and incubated for 1 hour with shaking. Goat Anti-Rabbit IgG (H+L)-HRP Conjugate (BioRad Laboratories) in a 1:5000 dilution was added into the wells to incubate at room temperature with shaking. Finally, the SuperSignal ELISA Pico chemiluminescent substrate (Pierce Biotechnology) was added into the wells. The luminescence signal was recorded with a luminescence filter using a Wallac 1420 luminometer (PerkinElmer).

PAK1 = PAK1 (Homo sapiens, UniProt Q13153); assay: PAK1 kinase assay; type: biochemical; conditions: inhibitor concentration of 4 μM; FIG. 3B
Method: PAK1 kinase assay—Kinase assays were performed using labeled γ-P^32 ATP and the incorporation of labeled phosphate onto the myelin basic protein (MBP) substrate was monitored. Different concentrations of compound inhibitor were incubated with 0.1 nM PAK1 kinase in 20 mM MOPS pH 7, 30 mM MgCl2, 1 mM EDTA, 0.8 μg/μL bovine serum albumin, 5% DMSO (resulting from the inhibitor stock solution), in the presence of 25 μg of MBP substrate for 20 minutes. Reactions were initiated by adding ATP to a final concentration of 1 μM including 0.2 μCi/μL γ-^32P ATP to a final volume of 25 μL. The reactions were terminated by spotting 17.5 μL onto a circular P81 phosphocellulose paper (diameter 2.1 cm), followed by washing three times with 0.75% phosphoric acid and one time with acetone. The dried P81 papers were transferred to scintillation vials and 4 ml of scintillation cocktail was added. The counts per minute (CPM) were measured with a scintillation counter and the enzyme activity in the presence of the inhibitor was calculated as a percentage of the control sample corrected by the background.

[2] = biological target: BRAF mutants (Leu513 mutated to valine and alanine); assay: BRAF kinase assay with site directed mutants; type: biochemical, human; conditions: FIG. 6B
Method: as §1, with “(PerkinElmer). […]” for “(PerkinElmer).”

BRAF^WT = BRAF^WT (Homo sapiens, UniProt P15056); assay: BRAF kinase assay (wild type); type: biochemical
Method: as §1

MST1 = biological target: T2, MST1 (Homo sapiens, UniProt Q13043); assay: MST1 kinase assay; type: biochemical; conditions: inhibitor concentration of 4 μM; FIG. 3B
T2 sequence (Q13043 1-487): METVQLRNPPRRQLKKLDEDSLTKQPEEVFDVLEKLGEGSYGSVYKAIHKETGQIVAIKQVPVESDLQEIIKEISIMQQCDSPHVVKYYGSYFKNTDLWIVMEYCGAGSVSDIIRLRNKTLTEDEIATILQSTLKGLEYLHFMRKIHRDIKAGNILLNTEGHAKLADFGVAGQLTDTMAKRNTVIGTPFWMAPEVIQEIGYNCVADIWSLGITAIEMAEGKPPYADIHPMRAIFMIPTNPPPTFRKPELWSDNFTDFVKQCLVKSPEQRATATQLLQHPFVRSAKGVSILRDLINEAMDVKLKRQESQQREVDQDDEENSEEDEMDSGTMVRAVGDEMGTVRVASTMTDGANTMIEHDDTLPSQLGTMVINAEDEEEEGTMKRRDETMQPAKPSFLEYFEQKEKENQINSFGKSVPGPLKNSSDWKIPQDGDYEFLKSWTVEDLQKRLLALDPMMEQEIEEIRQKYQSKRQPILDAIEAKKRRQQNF
Method: MST1 kinase assay—Kinase assays were performed using labeled γ-P^32 ATP and the incorporation of labeled phosphate onto the substrate FOXO was monitored. Kinase assays were performed using kinase buffer containing 10 mM Tris pH 7.5, 10 mM MgCl2, 1 mM dithiothreitol (DTT), 1 mM phenylmethylsulfonyl fluoride (PMSF) and a cocktail containing phosphatase inhibitor. 5 μCi of labeled γ-P^32 ATP and a final concentration of 200 μM of ATP were used for each reaction. 10 nM of the enzyme was pre-incubated for 30 min with various concentrations of inhibitor and an equivalent amount of DMSO was used as a control. After 30 min of incubation of the enzyme with the inhibitor, 1 μg of substrate was added. The reaction was initiated by addition of ATP. All reactions were incubated at 37° C. for 30 min. and then stopped with SDS gel-loading dye; subsequently samples were heated for 3 min and loaded onto a 16% Tris-glycine gel (Novagen). The bands were visualized using high sensitivity Kodak film and the results were quantified using the software ImageJ.

[3] = test system: 1205Lu melanoma cell line; assay: Cell proliferation (MTT) assay; type: cell-based, human; conditions: increasing concentrations, 72 hours, FIG. 4B
Method: Cell Proliferation (MTT) Assay. Cells were plated into a 96-well plate at a density of 2.5×10^4 cells per ml and left to grow overnight. Cells were treated with increasing concentrations of E5E1 (0.03-30 μM), […] or LY 294002 (Calbiochem, San Diego, Calif.) (0.01-30 μM) in triplicate. In each instance cells were grown for 72 hours before being treated with 20 μl of MTT for 3 hours (Sigma). After this time, the media was rapidly removed and the MTT crystals were solubilized using DMSO. The resulting absorbance was read in a plate reader at 560 nm. Absorbance readings were subtracted from the value of blank wells, the reduction in cell growth was calculated as a percentage of control absorbance in the absence of any drug.

[4] = test system: phospho-AKT in a melanoma cell line; assay: Western blot analysis of phospho-AKT in melanoma cells; type: cell-based, human; conditions: FIG. 4A
From the text: Western Blot Analysis. Proteins were extracted and blotted for as described in (41). […] Antibodies to phospho-AKT and total AKT were from Cell Signaling Technology, (Beverly, Mass.). The monoclonal antibody to β-actin was from Sigma.

[5] = test system: melanoma cells grown as 3D collagen-implanted spheroids; assay: 3D spheroid growth / invasion; type: cell-based, human; conditions: 30 μM; 72 hours; FIG. 4C
Method: 3D Spheroid Growth. Melanoma spheroids were prepared using the liquid overlay method. Briefly, […] of melanoma cells (25,000 cells per ml) were added to a 96-well plate coated with 1.5% agar (Difco, Sparks MD). Plates were left to incubate for 72 hours, by which time cells had organized into 3D spheroids. Spheroids were then harvested using a P1000 pipette. The media was removed and the spheroids were implanted into a gel of bovine collagen I containing EMEM, L-glutamine and 2% FBS. Normal 2% melanoma media was overlaid on top of the solidified collagen. Spheroids were treated with either E5E1 (10-30 μM), or E5E2 (10-30 μM), before being left to grow for 72 hours. Spheroids were then washed twice in PBS before being treated with calcein-AM, ethidium bromide (Molecular Probes, Eugene, Oreg.) for 1 hour at 37° C., according to the manufacturer's instruction. After this time, pictures of the invading spheroids were taken using a Nikon-300 inverted fluorescence microscope.

T1 sequence (P48736 144-1102 limits assumed): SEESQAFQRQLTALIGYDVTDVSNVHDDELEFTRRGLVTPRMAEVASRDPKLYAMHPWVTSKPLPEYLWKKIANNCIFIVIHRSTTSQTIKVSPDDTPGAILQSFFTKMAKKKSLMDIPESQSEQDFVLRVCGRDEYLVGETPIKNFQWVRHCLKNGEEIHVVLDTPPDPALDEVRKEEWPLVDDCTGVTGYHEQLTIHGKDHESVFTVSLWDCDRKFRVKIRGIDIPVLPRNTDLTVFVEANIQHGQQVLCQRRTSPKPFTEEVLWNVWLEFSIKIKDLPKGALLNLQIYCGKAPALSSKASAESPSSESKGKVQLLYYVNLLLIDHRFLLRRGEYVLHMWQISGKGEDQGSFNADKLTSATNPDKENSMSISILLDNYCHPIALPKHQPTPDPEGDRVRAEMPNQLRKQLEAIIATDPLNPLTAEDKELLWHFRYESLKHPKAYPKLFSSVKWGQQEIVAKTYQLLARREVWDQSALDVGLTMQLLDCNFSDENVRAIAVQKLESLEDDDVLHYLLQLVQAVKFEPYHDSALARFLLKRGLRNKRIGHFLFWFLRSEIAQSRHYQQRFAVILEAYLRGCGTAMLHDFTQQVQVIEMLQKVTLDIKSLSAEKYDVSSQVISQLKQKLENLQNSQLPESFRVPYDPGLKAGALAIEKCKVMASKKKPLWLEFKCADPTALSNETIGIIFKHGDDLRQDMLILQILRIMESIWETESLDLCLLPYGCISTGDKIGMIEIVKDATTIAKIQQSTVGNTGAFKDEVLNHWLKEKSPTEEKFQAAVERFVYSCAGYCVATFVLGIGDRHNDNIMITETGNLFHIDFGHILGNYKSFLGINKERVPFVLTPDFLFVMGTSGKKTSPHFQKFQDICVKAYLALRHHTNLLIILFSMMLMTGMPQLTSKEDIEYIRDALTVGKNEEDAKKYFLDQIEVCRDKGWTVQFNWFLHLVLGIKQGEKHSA
Sequence of BRAF^WT (P15056 whole entry): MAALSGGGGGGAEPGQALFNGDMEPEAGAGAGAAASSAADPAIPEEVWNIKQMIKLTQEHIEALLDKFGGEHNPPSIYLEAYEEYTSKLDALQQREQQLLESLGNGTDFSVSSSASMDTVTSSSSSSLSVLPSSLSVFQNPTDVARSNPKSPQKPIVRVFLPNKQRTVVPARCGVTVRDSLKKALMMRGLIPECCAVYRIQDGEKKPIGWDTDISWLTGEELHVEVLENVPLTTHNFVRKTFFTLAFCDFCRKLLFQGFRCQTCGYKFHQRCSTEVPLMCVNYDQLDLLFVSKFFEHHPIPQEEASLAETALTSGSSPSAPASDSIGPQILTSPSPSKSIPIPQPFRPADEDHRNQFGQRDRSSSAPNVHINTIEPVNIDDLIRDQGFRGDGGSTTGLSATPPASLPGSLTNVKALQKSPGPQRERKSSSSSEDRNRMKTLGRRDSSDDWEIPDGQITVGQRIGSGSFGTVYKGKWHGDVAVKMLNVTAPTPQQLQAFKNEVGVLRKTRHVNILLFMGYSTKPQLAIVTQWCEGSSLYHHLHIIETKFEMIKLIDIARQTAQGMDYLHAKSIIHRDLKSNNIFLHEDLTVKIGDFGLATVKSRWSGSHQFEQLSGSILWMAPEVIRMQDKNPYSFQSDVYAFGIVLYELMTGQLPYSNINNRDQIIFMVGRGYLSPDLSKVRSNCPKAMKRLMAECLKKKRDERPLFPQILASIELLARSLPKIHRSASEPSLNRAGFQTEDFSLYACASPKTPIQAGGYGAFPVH
Sequence of BRAF^V600E (P15056 whole entry V600E): as the sequence (P15056 whole entry) above, with V600E counted along it
Sequence of PAK1 (Q13153 whole entry): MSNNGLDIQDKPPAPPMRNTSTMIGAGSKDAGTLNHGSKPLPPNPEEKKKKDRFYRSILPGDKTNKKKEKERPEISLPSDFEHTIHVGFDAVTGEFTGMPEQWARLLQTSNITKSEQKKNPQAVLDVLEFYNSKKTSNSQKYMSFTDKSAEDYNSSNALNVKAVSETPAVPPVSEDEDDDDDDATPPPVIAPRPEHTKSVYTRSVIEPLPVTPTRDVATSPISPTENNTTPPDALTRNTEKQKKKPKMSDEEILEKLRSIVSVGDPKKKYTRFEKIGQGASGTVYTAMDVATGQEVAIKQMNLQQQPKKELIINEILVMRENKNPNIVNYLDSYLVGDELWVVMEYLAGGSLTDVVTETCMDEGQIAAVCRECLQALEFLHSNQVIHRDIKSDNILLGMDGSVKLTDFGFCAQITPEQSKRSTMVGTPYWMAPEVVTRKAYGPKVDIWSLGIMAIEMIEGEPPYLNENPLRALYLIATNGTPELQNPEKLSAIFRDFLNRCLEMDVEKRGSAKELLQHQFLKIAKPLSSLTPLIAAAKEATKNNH

Row | SMILES | IC50 [1] | PI3K inhibition / inhibitory potency (in words) ([1]; comparison among the inhibitors, FIG. 2C, FIG. 9) | inhibition of BRAF^V600E (BRAF^V600E) | inhibition of PAK1 (PAK1) | IC50 [2] | inhibition of BRAF^WT (BRAF^WT; inhibitor concentration of 4 μM, FIG. 3B) | inhibition against wild-type BRAF (BRAF^WT; inhibitor concentration of 10 μM, FIG. 6B) | inhibition of MST1 (MST1) | cell proliferation (MTT) [3] | block of constitutive activity of AKT (phospho-AKT) [4] | invasion of melanoma cells from 3D spheroids [5]
1 | CN1C(=O)c2c(c3c4cc(O)ccc4[n]4c3c3c2cc(F)c[n+]3[Ru-2]42356([C]#[O+])[CH]4[CH]2[CH]3[C]5(C(=O)NC(C)(CO)CO)[CH]46)C1=O (single isomer, unassigned) [Compound E5E2] | 0.039 µM | potent | did not show appreciable inhibition | did not show appreciable inhibition | ~10 µM | did not show appreciable inhibition | no detectable inhibition | did not show appreciable inhibition | – | – | –
2 | O=c1cc(N2CCOCC2)oc2c(-c3ccccc3)cccc12 [LY294002, 2-(4-morpholinyl)-8-phenyl-4H-1-benzopyran-4-one, reference compound] | – | – | – | – | – | – | – | – | inhibition of cell proliferation | – | –
3 | CN1C(=O)c2c(c3c4cc(O)ccc4[n]4c3c3c2cc(F)c[n+]3[Ru-2]42356([C]#[O+])[CH]4[CH]2[CH]3[C]5(C(=O)NC(C)(CO)CO)[CH]46)C1=O (single isomer, unassigned) [Compound E5E1] | 0.041 µM | – | – | – | – | – | – | – | inhibition of cell proliferation | block the constitutive activity of AKT in a concentration dependent manner | completely blocked
